In ChEMBL document CHEMBL4354781, “Drug-resistance in Mycobacterium tuberculosis: where we stand” (2019):
In brackets after ≈: the same amount, converted by molar mass. Numbered stars: 1 amine (or outer) side, 2 acyl side, 3 side chain; on linkers, the order of the positions; unused ones are H or OH. Bridge positions count the residues as written; N and C are the ends. Square brackets hold non-standard residues; d marks the D form. Peptide text beside a SMILES is read from it. * marks the point of attachment. X1 = N=C1NCC[C@H]([C@H](N[*:1])C(=O)[*:2])N1; ΔAla(Z-3-ureido) = NC(=O)N/C=C(\N)C(=O)O; β3hOrn = NCCC[C@H](N)CC(=O)*; Dap = NC[C@H](N)C(=O)O

How the values were obtained:
Assay type in all cases: functional
[1] = test system: Mycobacterium tuberculosis; assay: Antitubercular activity against resistant Mycobacterium tuberculosis 1 harboring rpoB Ser531Leu mutant after 4 weeks by absolute concentration-microtiter method
[2] = test system: Mycobacterium tuberculosis; assay: Antitubercular activity against resistant Mycobacterium tuberculosis 75 harboring rpoB Ser531Leu mutant after 4 weeks by absolute concentration-microtiter method
[3] = test system: Mycobacterium tuberculosis; assay: Antitubercular activity against resistant Mycobacterium tuberculosis 8 harboring rpoB His526Pro mutant by absolute concentration-microtiter method
[4] = test system: Mycobacterium tuberculosis; assay: Antitubercular activity against resistant Mycobacterium tuberculosis 4 harboring rpoB Ser531Leu mutant after 4 weeks by absolute concentration-microtiter method
[5] = test system: Mycobacterium tuberculosis; assay: Antitubercular activity against resistant Mycobacterium tuberculosis 76 harboring rpoB Ser531Leu mutant after 4 weeks by absolute concentration-microtiter method
[6] = test system: Mycobacterium tuberculosis; assay: Antitubercular activity against resistant Mycobacterium tuberculosis 5 harboring rpoB His526Tyr mutant by absolute concentration-microtiter method
[7] = test system: Mycobacterium tuberculosis; assay: Antitubercular activity against resistant Mycobacterium tuberculosis 21 harboring rpoB Ser531Leu mutant after 4 weeks by absolute concentration-microtiter method
[8] = test system: Mycobacterium tuberculosis; assay: Antitubercular activity against resistant Mycobacterium tuberculosis 73 harboring rpoB His526Tyr mutant by absolute concentration-microtiter method
[9] = test system: Mycobacterium tuberculosis; assay: Antitubercular activity against resistant Mycobacterium tuberculosis 7 harboring rpoB His526Tyr mutant by absolute concentration-microtiter method
[10] = test system: Mycobacterium tuberculosis; assay: Antitubercular activity against resistant Mycobacterium tuberculosis 2 harboring rpoB Ser531Leu mutant after 4 weeks by absolute concentration-microtiter method
[11] = test system: Mycobacterium tuberculosis; assay: Antitubercular activity against resistant Mycobacterium tuberculosis 72 harboring rpoB His526Asp mutant by absolute concentration-microtiter method
[12] = test system: Mycobacterium tuberculosis; assay: Antitubercular activity against resistant Mycobacterium tuberculosis 3 harboring rpoB Ser531Leu mutant after 4 weeks by absolute concentration-microtiter method
[13] = test system: Mycobacterium tuberculosis; assay: Antitubercular activity against resistant Mycobacterium tuberculosis 6 harboring rpoB Ser531Leu mutant after 4 weeks by absolute concentration-microtiter method
[14] = test system: Mycobacterium tuberculosis; assay: Antitubercular activity against resistant Mycobacterium tuberculosis 26 harboring rpoB Ser531Leu mutant after 4 weeks by absolute concentration-microtiter method
[15] = test system: Mycobacterium tuberculosis; assay: Antitubercular activity against resistant Mycobacterium tuberculosis 74 harboring rpoB His526Tyr mutant by absolute concentration-microtiter method
[16] = test system: Mycobacterium tuberculosis; assay: Antitubercular activity against resistant Mycobacterium tuberculosis 23 harboring rpoB His526Asp mutant by absolute concentration-microtiter method
[17] = test system: Mycobacterium tuberculosis; assay: Antitubercular activity against resistant Mycobacterium tuberculosis harboring rrs A1401G mutant
[18] = test system: Mycobacterium tuberculosis; assay: Antitubercular activity against resistant Mycobacterium tuberculosis TDR harboring inhA Promoter (c-15 t)/IIe21Thr mutant
[19] = test system: Mycobacterium tuberculosis; assay: Antitubercular activity against resistant Mycobacterium tuberculosis TDR harboring inhA Promoter (c-15 t) mutant
[20] = test system: Mycobacterium tuberculosis; assay: Antitubercular activity against resistant Mycobacterium tuberculosis Bangladesh isolate harboring inhA Promoter (c-15 t)/Ser94Ala mutant
[21] = test system: Mycobacterium tuberculosis; assay: Antitubercular activity against resistant Mycobacterium tuberculosis TDR harboring inhA Promoter (c-15 t)/Ser94Ala mutant
[22] = test system: Mycobacterium tuberculosis; assay: Antitubercular activity against resistant Mycobacterium tuberculosis Bangladesh isolate harboring inhA Promoter (c-15 t)
[23] = test system: Mycobacterium tuberculosis; assay: Antitubercular activity against resistant Mycobacterium tuberculosis Bangladesh isolate harboring katG Ser315Thr mutant
[24] = test system: Mycobacterium tuberculosis; assay: Antitubercular activity against resistant Mycobacterium tuberculosis TDR harboring katG Ser315Thr mutant
[25] = test system: Mycobacterium tuberculosis; assay: Antitubercular activity against resistant Mycobacterium tuberculosis Bangladesh isolate harboring inhA Promoter (c-15 t)/IIe21Thr mutant
[26] = test system: Mycobacterium tuberculosis; assay: Antitubercular activity against resistant Mycobacterium tuberculosis harboring gyrB Ala90Val mutant incubated for 28 days by absolute concentration method
[27] = test system: Mycobacterium tuberculosis; assay: Antitubercular activity against resistant Mycobacterium tuberculosis harboring gyrA Asp94His mutant incubated for 28 days by absolute concentration method
[28] = test system: Mycobacterium tuberculosis; assay: Antitubercular activity against resistant Mycobacterium tuberculosis harboring gyrA Asp94Tyr mutant incubated for 28 days by absolute concentration method
[29] = test system: Mycobacterium tuberculosis; assay: Antitubercular activity against resistant Mycobacterium tuberculosis harboring gyrA Asp94Gly mutant incubated for 28 days by absolute concentration method
[30] = test system: Mycobacterium tuberculosis; assay: Antitubercular activity against resistant Mycobacterium tuberculosis harboring gyrA Asp94Asn mutant incubated for 28 days by absolute concentration method
[31] = test system: Mycobacterium tuberculosis; assay: Antitubercular activity against resistant Mycobacterium tuberculosis harboring gyrB T511N mutant incubated for 28 days by absolute concentration method
[32] = test system: Mycobacterium tuberculosis; assay: Antitubercular activity against multidrug resistant Mycobacterium tuberculosis
[33] = test system: Mycobacterium tuberculosis; assay: Antitubercular activity against resistant Mycobacterium tuberculosis harboring rplC Cys154Arg mutant
[34] = test system: Mycobacterium tuberculosis; assay: Antitubercular activity against resistant Mycobacterium tuberculosis harboring embCAB Gly406Asp/Ala mutant
[35] = test system: Mycobacterium tuberculosis; assay: Antitubercular activity against resistant Mycobacterium tuberculosis harboring embCAB Met306IIe/Val mutant
[36] = test system: Mycobacterium tuberculosis; assay: Antitubercular activity against resistant Mycobacterium tuberculosis harboring rrs C1402T mutant after 3 to 6 weeks
[37] = test system: Mycobacterium tuberculosis; assay: Antitubercular activity against resistant Mycobacterium tuberculosis harboring rrs G37T mutant after 3 to 6 weeks
[38] = test system: Mycobacterium tuberculosis; assay: Antitubercular activity against resistant Mycobacterium tuberculosis harboring rrs A1401G mutant after 3 to 6 weeks
[39] = test system: Mycobacterium tuberculosis; assay: Antitubercular activity against resistant Mycobacterium tuberculosis harboring rrs G1484T/C-12T mutant after 3 to 6 weeks
[40] = test system: Mycobacterium tuberculosis; assay: Antitubercular activity against resistant Mycobacterium tuberculosis harboring pncA D8N mutant incubated for 3 weeks
[41] = test system: Mycobacterium tuberculosis; assay: Antitubercular activity against resistant Mycobacterium tuberculosis harboring pncA Cys138S mutant incubated for 3 weeks

CO[C@H]1/C=C/O[C@@]2(C)Oc3c(C)c(O)c4c(O)c(c(/C=N/N5CCN(C)CC5)c(O)c4c3C2=O)NC(=O)/C(C)=C\C=C\[C@H](C)[C@H](O)[C@@H](C)[C@@H](O)[C@@H](C)[C@H](OC(C)=O)[C@@H]1C [RIFAMPIN]
MIC [1]: >=2 - 200 ug ml-1 | MIC [2]: >=2 - 200 ug ml-1 | MIC [3]: >=2 - 200 ug ml-1 | MIC [4]: >=2 - 200 ug ml-1 | MIC [5]: >=2 - 200 ug ml-1 | MIC [6]: >=2 - 200 ug ml-1 | MIC [7]: >=2 - 200 ug ml-1 | MIC [8]: >=2 - 200 ug ml-1 | MIC [9]: >=2 - 200 ug ml-1 | MIC [10]: >=2 - 200 ug ml-1 | MIC [11]: >=2 - 200 ug ml-1 | MIC [12]: >=2 - 200 ug ml-1 | MIC [13]: >=2 - 200 ug ml-1 | MIC [14]: >=2 - 200 ug ml-1 | MIC [15]: >=2 - 200 ug ml-1 | MIC [16]: >=2 - 200 ug ml-1

NCC[C@H](O)C(=O)N[C@@H]1C[C@H](N)[C@@H](O[C@H]2O[C@H](CN)[C@@H](O)[C@H](O)[C@H]2O)[C@H](O)[C@H]1O[C@H]1O[C@H](CO)[C@@H](O)[C@H](N)[C@H]1O [AMIKACIN]
MIC [17]: 4 µg/mL (≈ 6.83 µM)

NNC(=O)c1ccncc1 [ISONIAZID]
MIC [18]: 3.2 to 12.8 µg/mL | MIC [19]: 0.16 to 0.8 µg/mL | MIC [20]: 3.2 to 12.8 µg/mL | MIC [21]: 3.2 to 12.8 µg/mL | MIC [22]: 0.16 to 0.8 µg/mL (≈ 1.17 to 5.83 µM) | MIC [23]: >19.2 µg/mL | MIC [24]: >19.2 µg/mL | MIC [25]: 3.2 to 12.8 µg/mL

C[C@H]1COc2c(N3CCN(C)CC3)c(F)cc3c(=O)c(C(=O)O)cn1c23.C[C@H]1COc2c(N3CCN(C)CC3)c(F)cc3c(=O)c(C(=O)O)cn1c23.O [LEVOFLOXACIN]
MIC [26]: >1 µg/mL | MIC [27]: >10 µg/mL | MIC [28]: >10 µg/mL | MIC [29]: >10 µg/mL | MIC [30]: >10 µg/mL | MIC [31]: >1 µg/mL

CC(=O)NC[C@H]1CN(c2ccc(N3CCOCC3)c(F)c2)C(=O)O1 [LINEZOLID]
MIC [32]: 0.125 to 0.5 µg/mL (≈ 0.371 to 1.48 µM) | MIC [33]: >1 µg/mL

CC[C@@H](CO)NCCN[C@@H](CC)CO [ETHAMBUTOL]
MIC [34]: 10 to 50 µg/mL | MIC [35]: 10 to 50 µg/mL

NC[C@H]1O[C@H](O[C@H]2[C@H](O)[C@@H](O[C@H]3O[C@H](CO)[C@@H](O)[C@H](N)[C@H]3O)[C@H](N)C[C@@H]2N)[C@H](O)[C@@H](O)[C@@H]1O [KANAMYCIN]
MIC [36]: >2.5 µg/mL | MIC [37]: >2.5 µg/mL | MIC [38]: >2.5 µg/mL | MIC [39]: >2.5 µg/mL

N=C1NCC[C@H]([C@@H]2NC(=O)/C(=C/NC(N)=O)NC(=O)[C@H](CNC(=O)C[C@@H](N)CCCN)NC(=O)[C@H](CO)NC(=O)[C@@H](N)CNC2=O)N1 (H-[Dap]S[Dap](β3hOrn)[ΔAla(Z-3-ureido)][X1]; lactam 1-C)
MIC [38]: >2.5 µg/mL

NC(=O)c1cnccn1 [PYRAZINAMIDE]
MIC [40]: >=400 - 800 ug ml-1 | MIC [41]: >=400 - 800 ug ml-1
